In PMC12658050 (Scientific Reports, 2025):

Target: cyclin B1 (CCNB1) (Homo sapiens, UniProt P14635)
Assay: SPR
Type: binding

Chain of cyclin B1 (CCNB1) (P14635 whole entry): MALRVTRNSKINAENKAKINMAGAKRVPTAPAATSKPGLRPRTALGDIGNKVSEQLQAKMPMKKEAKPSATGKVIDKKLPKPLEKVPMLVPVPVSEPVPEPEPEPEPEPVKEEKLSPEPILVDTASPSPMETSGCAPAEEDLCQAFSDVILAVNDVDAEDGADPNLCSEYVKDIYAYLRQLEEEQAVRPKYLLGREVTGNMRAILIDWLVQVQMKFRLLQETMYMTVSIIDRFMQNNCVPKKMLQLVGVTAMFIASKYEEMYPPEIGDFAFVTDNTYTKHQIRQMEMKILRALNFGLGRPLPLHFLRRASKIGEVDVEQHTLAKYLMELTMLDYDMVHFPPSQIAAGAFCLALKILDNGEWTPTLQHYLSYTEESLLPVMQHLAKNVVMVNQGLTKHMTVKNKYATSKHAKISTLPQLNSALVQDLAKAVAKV

With `O=c1cc(-c2ccc(O)c(O)c2)oc2cc(O)cc(O)c12` [Luteolin, 3′,4′,5,7-tetrahydroxyflavone] the Kd was roughly 36.7 µM.
